Among the test systems are UACC-62; A498; SK-MEL-28; IGROV-1; DU-145; SK-MEL-2; Malme-3M; A549; HCT-15; COLO 205; NCI/ADR-RES; HOP-62; SN12C; UO-31; CCRF-CEM; HL-60; HCC 2998; MCF7; SW-620; SR.
Assay in all cases: inhibition of tumour cell growth, NCI panel, 48 h

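48-hour exposure; five concentrations; linearly interpolated endpoints. GI50 = concentration required for 50% inhibition of growth.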 Calls of active or inactive are those of the source. No stated cut-off is given here; in the data, active = GI50 up to about 1.1 µM and inactive = higher.

In the case of `O=c1ccc(=O)n(-c2ccccc2)[nH]1`, the GI50 in the test on UACC-62, with A498, in the test on SK-MEL-28, with IGROV-1, in the test on DU-145 and with SK-MEL-2 was > 100 µM (inactive) each time. Moreover, the GI50 is > 100 µM (inactive) in the test on Malme-3M; > 100 µM (inactive) with A549; over 100 µM in the test on HCT-15; > 100 µM (inactive) in the test with COLO 205; > 100 µM (inactive) in the test with NCI/ADR-RES; > 100 µM (inactive) in the test with HOP-62. For the same compound, the GI50 with SN12C, with UO-31, in the test with CCRF-CEM, in the test on HL-60, in the test on HCC 2998 and in the test with MCF7 was > 100 µM (inactive) in each case. Also, the GI50 in the test with SW-620 was > 100 µM (inactive).
Consider `Cc1oc2c(c1C)S(=O)(=O)C(C#N)C(c1ccccc1)N2` (centres undefined), for which the GI50 in the test with UACC-62 was 41.4 µM (inactive); in the test on A498 it was > 100 µM (inactive); in the test on SK-MEL-28 it was > 100 µM (inactive); with IGROV-1, > 100 µM (inactive); in the test with DU-145, 80.7 µM (inactive); in the test on SK-MEL-2 it was 61.8 µM (inactive). Besides, the GI50 with Malme-3M is 37.7 µM (inactive); in the test with A549, 44.7 µM (inactive); in the test on HCT-15 it was 38.7 µM; in the test with COLO 205, 29.3 µM (inactive); in the test on NCI/ADR-RES, 30.8 µM (inactive); with HOP-62, > 100 µM (inactive). For the same compound, the GI50 in the test with SN12C was 49.8 µM (inactive); with UO-31 it was 41.5 µM (inactive); in the test with CCRF-CEM it was 20.4 µM (inactive); in the test on HCC 2998 it was 53.8 µM (inactive); in the test on MCF7, 51.5 µM (inactive); with SW-620, > 100 µM (inactive).
As for `CO/C(N)=C(C#N)/N=C/c1ccco1`, the GI50 in the test on UACC-62, in the test with A498, in the test with SK-MEL-28, with IGROV-1, with DU-145 and in the test with SK-MEL-2 was > 100 µM (inactive) throughout. The GI50 in the test with Malme-3M was > 100 µM (inactive); in the test on A549, > 100 µM (inactive); with HCT-15, over 100 µM; with COLO 205 it was > 100 µM (inactive); in the test with NCI/ADR-RES it was > 100 µM (inactive); in the test on HOP-62 it was > 100 µM (inactive). The GI50 is > 100 µM (inactive) in the test on SN12C; > 100 µM (inactive) in the test on UO-31; 67.8 µM (inactive) in the test on CCRF-CEM; > 100 µM (inactive) with HL-60; > 100 µM (inactive) in the test on HCC 2998; > 100 µM (inactive) in the test with MCF7. The GI50 in the test on SW-620 was > 100 µM (inactive).
With `COc1ccc(C2C(C#N)=C(S)N(C3OC(COC(C)=O)C(OC(C)=O)C(OC(C)=O)C3OC(C)=O)C(c3ccccc3)=C2C(C)=O)cc1` (centres undefined), the GI50 in the test on UACC-62 was 41.8 µM (inactive); in the test on A498, > 100 µM (inactive); in the test with SK-MEL-28, > 100 µM (inactive); in the test on IGROV-1, > 100 µM (inactive); with DU-145, > 100 µM (inactive); with SK-MEL-2, > 100 µM (inactive). Further, the GI50 with Malme-3M was > 100 µM (inactive); with A549, > 100 µM (inactive); in the test with HCT-15, over 100 µM; in the test on COLO 205, > 100 µM (inactive); in the test on NCI/ADR-RES, > 100 µM (inactive); in the test on HOP-62 it was > 100 µM (inactive). Also, the GI50 in the test on SN12C was > 100 µM (inactive); in the test with UO-31, 21.6 µM (inactive); with CCRF-CEM, > 100 µM (inactive); in the test with HL-60, 63.8 µM (inactive); in the test with HCC 2998 it was > 100 µM (inactive); in the test on MCF7 it was 63 µM (inactive).
Turning to `NC(N)=NCCC[C@H](N)C(=O)NCC(=O)N[C@@H](CC(=O)O)c1ncc(NC(=O)C(F)(F)F)o1`, the GI50 in the test with UACC-62, in the test with A498, in the test with SK-MEL-28, with IGROV-1, in the test with DU-145 and in the test on SK-MEL-2 was > 25 µM (inactive) throughout. The GI50 in the test with Malme-3M is > 25 µM (inactive); in the test with A549 it was > 25 µM (inactive); in the test on HCT-15, over 25 µM; in the test with COLO 205, > 25 µM (inactive); in the test on NCI/ADR-RES, > 25 µM (inactive); in the test on HOP-62, > 25 µM (inactive). In addition, the GI50 in the test with UO-31 was > 25 µM (inactive); with CCRF-CEM, > 25 µM (inactive); in the test with HL-60, > 25 µM (inactive); with HCC 2998 it was 17.8 µM (inactive); in the test on MCF7, > 25 µM (inactive); with SW-620, > 25 µM (inactive).
Take `O=P(O)(CN1CCN(CP(=O)(O)c2ccccc2)CCN(CP(=O)(O)c2ccccc2)CC1)c1ccccc1`: the GI50 is > 10 µM (inactive) in the test with UACC-62; 9.16 µM (inactive) in the test on A498; > 100 µM (inactive) with SK-MEL-28; > 100 µM (inactive) with IGROV-1; > 100 µM (inactive) in the test with DU-145; 56.2 µM (inactive) in the test with Malme-3M. The GI50 with A549 is 47.6 µM (inactive); with COLO 205, 69.3 µM (inactive); with NCI/ADR-RES, > 100 µM (inactive); with HOP-62, > 100 µM (inactive); with UO-31, > 100 µM (inactive); in the test on CCRF-CEM, > 100 µM (inactive). Also, the GI50 with HL-60 was > 100 µM (inactive); in the test on HCC 2998 it was 78.2 µM (inactive); in the test with MCF7, 28.1 µM (inactive); with SW-620 it was 45.6 µM (inactive).
Consider `C[N+](C)(C)CCCSc1nc2ccccc2[nH]1`, for which the GI50 with UACC-62, in the test on A498, in the test on SK-MEL-28, in the test with IGROV-1, in the test on DU-145 and with SK-MEL-2 was > 100 µM (inactive) throughout. The GI50 is > 100 µM (inactive) with Malme-3M; > 100 µM (inactive) with A549; over 100 µM in the test with HCT-15; > 100 µM (inactive) in the test on COLO 205; > 100 µM (inactive) in the test on NCI/ADR-RES; > 100 µM (inactive) in the test with HOP-62. Also, the GI50 with SN12C, in the test on UO-31, in the test on CCRF-CEM, in the test on HL-60, with HCC 2998 and with MCF7 was > 100 µM (inactive) in each case. In addition, the GI50 in the test on SW-620 is > 100 µM (inactive).
Regarding `CSC1=N/C(=C\c2cccs2)C(=O)N1CN1CCCCC1`, the GI50 was 93.3 µM (inactive) with UACC-62; > 100 µM (inactive) in the test with A498; > 100 µM (inactive) in the test with SK-MEL-28; 33.5 µM (inactive) in the test on IGROV-1; > 100 µM (inactive) in the test with DU-145; > 100 µM (inactive) with SK-MEL-2. In addition, the GI50 in the test on Malme-3M is 28.3 µM (inactive); in the test on A549, > 100 µM (inactive); in the test on SR it was 32.2 µM (inactive); in the test with HCT-15, 37.2 µM; with COLO 205, 70.6 µM (inactive); in the test on NCI/ADR-RES it was 50.9 µM (inactive). In addition, the GI50 in the test on HOP-62 is > 100 µM (inactive); in the test on SN12C, > 100 µM (inactive); in the test with UO-31, 23.3 µM (inactive); in the test with CCRF-CEM it was 18.7 µM (inactive); in the test on MCF7, 45.2 µM (inactive); in the test with SW-620 it was 36.9 µM (inactive).
Take `COc1ccc(OCc2nc3cc(C(F)(F)F)ccc3nc2-c2ccccc2)cc1`: the GI50 was > 100 µM (inactive) in the test on UACC-62; 94.8 µM (inactive) with A498; > 100 µM (inactive) in the test with SK-MEL-28; > 100 µM (inactive) in the test on DU-145; > 100 µM (inactive) in the test with SK-MEL-2; > 100 µM (inactive) in the test with Malme-3M. For the same compound, the GI50 in the test with A549 was > 100 µM (inactive); in the test with HCT-15 it was over 100 µM; with COLO 205 it was > 100 µM (inactive); with NCI/ADR-RES, > 100 µM (inactive); with HOP-62 it was > 100 µM (inactive); with SN12C it was > 100 µM (inactive). Besides, the GI50 in the test on UO-31, in the test with CCRF-CEM, in the test with HL-60, with HCC 2998, with MCF7 and in the test with SW-620 was > 100 µM (inactive) in each case.
Take `Cc1ccc(S(=O)(=O)N2CCCCN(S(=O)(=O)c3ccc(C)cc3)Cc3ccccc3OCCOCCOc3c4cccc3Cc3cccc5c3OCCOCCOc3ccccc3CN(S(=O)(=O)c3ccc(C)cc3)CCCN(S(=O)(=O)c3ccc(C)cc3)Cc3ccccc3OCCOCCOc3c(cccc3C4)Cc3cccc(c3OCCOCCOc3ccccc3C2)C5)cc1`: the GI50 with UACC-62 was > 100 µM (inactive); with A498, 53.2 µM (inactive); with IGROV-1, > 100 µM (inactive); with DU-145, > 100 µM (inactive); in the test on SK-MEL-2, > 100 µM (inactive); in the test with Malme-3M, > 100 µM (inactive). For the same compound, the GI50 in the test with A549 was > 100 µM (inactive); in the test with HCT-15 it was over 100 µM; in the test with COLO 205 it was > 100 µM (inactive); with NCI/ADR-RES, > 100 µM (inactive); in the test with HOP-62, > 100 µM (inactive); in the test with SN12C, > 100 µM (inactive). Besides, the GI50 in the test on UO-31, with CCRF-CEM, in the test with HCC 2998, with MCF7 and with SW-620 was > 100 µM (inactive) throughout.
Turning to `O=C1/C(=C/c2ccc(O)c([N+](=O)[O-])c2)CCC/C1=C\c1ccc(O)c([N+](=O)[O-])c1`, the GI50 with UACC-62 was 7.23 µM (inactive); in the test on A498, 6.55 µM (inactive); in the test with SK-MEL-28, 7.5 µM (inactive); in the test with IGROV-1 it was 8.93 µM (inactive); with DU-145 it was 9.77 µM (inactive); in the test on SK-MEL-2 it was 11.4 µM (inactive). Besides, the GI50 is 8.63 µM (inactive) in the test with Malme-3M; 11.7 µM (inactive) with A549; 12.4 µM in the test with HCT-15; 13.5 µM (inactive) in the test on COLO 205; 19.2 µM (inactive) with NCI/ADR-RES; 12.5 µM (inactive) in the test with HOP-62. Moreover, the GI50 in the test on SN12C is 11.4 µM (inactive); in the test with UO-31 it was 15.2 µM (inactive); in the test with CCRF-CEM, 30 µM (inactive); with HL-60 it was 14.6 µM (inactive); with HCC 2998, 8.69 µM (inactive); in the test with MCF7, 12.3 µM (inactive). Besides, in the test with SW-620, the GI50 was 10.2 µM (inactive).

(Values after ChEMBL document CHEMBL1201862, “PubChem BioAssay data set” (2004).)
